Earlier results, collected in patent publication US7687082B2, “Complementary compositions to reduce blood glucose levels and treat diabetes” (Astrum Therapeutics Pty. Ltd., priority 2005, dated 2010).
Like-named read-outs stand apart in the source and are kept apart here. Blank lines part the entries; values can stand above or below the compound they belong to.

Assays:
[1] = test system: T2DM patients; settings: 12 weeks, compared to placebo control
[2] = with food
[3] = test system: T2DM patients; settings: 200 μg twice daily, three weeks
[4] = test system: rats; settings: rat, in vivo
[5] = test system: humans; settings: in vivo
[6] = test system: timed-pregnant Sprague-Dawley rats; settings: rat, in vivo
[7] = test system: humans; settings: compared to baseline
[8] = target: T1, adenosine triphosphate (ATP) citrate lyase (Homo sapiens, UniProt P53396)
T1 sequence (P53396 1-1101): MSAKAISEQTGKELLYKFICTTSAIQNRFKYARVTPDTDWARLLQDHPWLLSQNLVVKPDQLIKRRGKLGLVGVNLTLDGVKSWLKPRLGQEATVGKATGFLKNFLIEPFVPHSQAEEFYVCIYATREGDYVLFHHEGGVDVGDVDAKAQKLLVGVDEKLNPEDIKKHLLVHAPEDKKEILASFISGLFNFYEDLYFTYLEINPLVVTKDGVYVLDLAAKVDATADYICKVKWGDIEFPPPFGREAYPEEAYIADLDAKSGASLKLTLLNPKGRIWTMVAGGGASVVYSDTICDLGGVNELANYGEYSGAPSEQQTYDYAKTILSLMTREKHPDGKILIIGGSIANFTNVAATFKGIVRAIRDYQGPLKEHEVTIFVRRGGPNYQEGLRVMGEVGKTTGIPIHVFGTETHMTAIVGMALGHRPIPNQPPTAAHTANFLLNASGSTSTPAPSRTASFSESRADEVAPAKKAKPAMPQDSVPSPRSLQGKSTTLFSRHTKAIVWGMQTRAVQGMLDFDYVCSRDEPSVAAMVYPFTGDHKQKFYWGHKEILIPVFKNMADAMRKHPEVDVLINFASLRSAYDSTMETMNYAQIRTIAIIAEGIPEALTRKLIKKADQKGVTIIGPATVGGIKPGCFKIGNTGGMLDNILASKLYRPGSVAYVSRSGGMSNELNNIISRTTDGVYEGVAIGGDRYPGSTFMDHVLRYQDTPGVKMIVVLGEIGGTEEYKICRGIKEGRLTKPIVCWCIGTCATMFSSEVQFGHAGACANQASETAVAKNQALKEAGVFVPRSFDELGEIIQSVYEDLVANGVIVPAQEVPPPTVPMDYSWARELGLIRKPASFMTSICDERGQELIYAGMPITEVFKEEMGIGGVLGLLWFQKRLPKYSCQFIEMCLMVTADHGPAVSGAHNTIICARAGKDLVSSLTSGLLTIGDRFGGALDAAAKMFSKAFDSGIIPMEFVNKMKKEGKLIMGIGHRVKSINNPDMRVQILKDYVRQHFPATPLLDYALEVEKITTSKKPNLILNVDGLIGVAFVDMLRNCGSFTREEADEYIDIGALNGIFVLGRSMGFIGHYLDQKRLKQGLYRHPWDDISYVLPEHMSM

[9] = test system: diabetes mellitus patients
[10] = test system: T2DM subjects; settings: 600 mg twice daily, 4 weeks

Compound: chromium picolinate [CrPic]
insulin level [1]: significant decrease
improvement in fasting glucose ([1]; p<0.001): 0.44 mM
improvement in post-prandial serum glucose ([1]; p<0.001): 1.97 mM

Compound: konjac mannan
decreased LDL [2]: −23%
decreased TC [2]: −12.7%
generalized loss of weight ([2]; average): 2.75 kg
reduced fasting and postprandial levels of glucose ([2]; on average): −22%

Compound: [Cr] [chromium]
reduction in triglycerides ([3]; compared to baseline): −10.5%
reduction in glucose ([3]; compared to baseline, p<0.001): −21%
reduction in cholesterol ([3]; compared to baseline, p<0.02): −9.4%
glycated hemoglobin (HbA1C) ([3]; from 8.2% at baseline, p<0.01): 7.6%

Compound: CCN(CC)CCO [diethylethanolamine]
findings in respiratory epithelium of the anterior nasal turbinate [4]: inflammatory cell infiltration, focal hyperplasia, and squamous metaplasia
individuals developing asthma [5]: 0.6%
reduction of body weight [6]: 9.5%
reduction of weight gain [6]: 48%

inhibition of ATP citrate lyase [8]: potent inhibitor
Compound: O=C(O)CC(O)(C(=O)O)C(O)C(=O)O (single isomer, unassigned; (-)) [(−)-HCA, (−)-hydroxycitric acid]
decreased body mass index (BMI) ([7]; 2.8 g): −5 to −6%
decreased body weight ([7]; 2.8 g): −5 to −6%
decreased low density lipoprotein (LDL) ([7]; 2.8 g): −13.2%
decreased total cholesterol (TC) ([7]; 2.8 g): −7.2%
increased high density lipoprotein (HDL) ([7]; 2.8 g): +7.3%
urine level of acetaldehyde ([7]; end of study): +83.1%
urine level of acetone ([7]; end of study): +35.6%
urine level of formaldehyde ([7]; end of study): +106.4%
urine level of malondialdehyde ([7]; end of study): +88.4%

Compound: O=C(O)CCCCC1CCSS1 (stereo not drawn) [α-LA, α-lipoic acid]
decrease of levels of peroxides [9]: 34%
increases in glucose disposal ([10]; lean T2DM subjects compared to lean controls): 50%
increases in glucose disposal ([10]; obese T2DM subjects compared to obese controls): 42%
